Source: EPA's ToxValDB 9.5
“And” between values parts separate entries of the source, which are not always exact repeats. Equal entries are not always repeated.

Assays:
Rattus norvegicus [1] = settings: oral
Rattus norvegicus [2] = system: Rattus norvegicus
Oryctolagus sp. = settings: acute, dermal
Rattus norvegicus [3] = settings: for LD50 / LC50: acute
Mus musculus = settings: oral
Rattus norvegicus [4] = settings: Hershberger; duration: 10 days; oral; gavage; Wistar; active + Negative + Antiandrogenic + anti-androgenic
[5] = reproduction developmental, oral, drinking water, F, reproductive effects
[6] = short-term, duration: 28 days, oral, diet, Sprague-Dawley
[7] = chronic, duration: 2 years, oral, diet, M/F, increased levels of serum proteins and increased liver weight
[8] = reproduction developmental, oral, M/F, reduced fertility index and reduced body weight of dams
[9] = reproduction developmental, duration: 2 weeks, inhalation, Sprague-Dawley
[10] = subchronic, duration: 13 weeks, oral, diet, M/F, neurological dysfunction
[11] = chronic, duration: 2 years, oral, diet, M/F, reduced body weight
[12] = developmental, duration: 16 days, gavage, F, Wistar, Developmental: 20% decrease in serum T4 levels in pups on PND 16/17 + Endocrine: 20-30% decreases in serum T4 levels in dams
[13] = reproduction developmental, duration: 56 days, gavage, M, Sprague-Dawley, Endocrine: Hypertrophy and hyperplasia of thyroid follicular cells in males
[14] = reproduction developmental, duration: 56 days, gavage, M, Sprague-Dawley, Renal: 31% increase in BUN in males
[15] = developmental, duration: 1 days, gavage, M/F, NMRI, Developmental: Altered spontaneous behavior and habituation in adults exposed as neonates
[16] = developmental, duration: 42 days, gavage, M/F, CD1, Developmental: Decrease in number of pups per litter with no change in pup to implantation site ratio

Oc1ccccc1Cl [2-Chlorophenol]
NOAEL (Rattus norvegicus [1]; reproduction developmental, duration: 364 days, drinking water, M/F, Sprague-Dawley, reproductive): 7.6 mg/kg-day
LOAEL (Rattus norvegicus [2]; [5]): 50 mg/kg-day
NOAEL (Rattus norvegicus [2]; [5]): 5 mg/kg-day

CCC(C)OP(=S)([S-])OC(C)CC(C)C.CCC(C)OP(=S)([S-])OC(C)CC(C)C.[Zn+2] (configuration not stated)
LD50 (Oryctolagus sp.; New Zealand): > 5000 mg/kg
LD50 (Rattus norvegicus [3]; oral, gavage, Sprague-Dawley): ≥ 2900 mg/kg and ≤ 3400 mg/kg

O=C1OC(=O)C2CCCCC12 (configuration not stated) [Hexahydrophthalic anhydride]
LD50 (Oryctolagus sp.; New Zealand): > 2000 mg/kg
LC50 (Rattus norvegicus [3]; Inhalation, Sprague-Dawley): > 1100 mg/m3
LD50 (Rattus norvegicus [3]; oral): 3310 mg/kg
LD50 (Rattus norvegicus [3]; oral, Sprague-Dawley): ≥ 2700 mg/kg and ≤ 2800 mg/kg

CCCCCCCCCc1cc2ccccc2c(S(=O)(=O)[O-])c1CCCCCCCCC.CCCCCCCCCc1cc2ccccc2c(S(=O)(=O)[O-])c1CCCCCCCCC.[Ba+2] [Naphthalenesulfonic acid, dinonyl-, barium salt]
LD50 (Oryctolagus sp.; New Zealand): < 20000 mg/kg
LC50 (Rattus norvegicus [3]; Inhalation, Wistar): > 21 µg/mL
LD50 (Rattus norvegicus [3]; oral, diet, Sprague-Dawley): > 5000 mg/kg
LD50 (Rattus norvegicus [3]; oral, gavage, Wistar): > 5000 mg/kg

CC(C)CCC(C)Nc1ccc(Nc2ccccc2)cc1 (configuration not stated) [N-(5-Methyl-2-hexyl)-N'-phenyl-p-phenylenediamine]
LD50 (Oryctolagus sp.; occlusive, New Zealand): > 5010 mg/kg
LOAEL (Rattus norvegicus [3]; [6]): 750 ppm
NOAEL (Rattus norvegicus [3]; [6]): 500 ppm

Clc1ccc(C(c2ccc(Cl)cc2)C(Cl)Cl)cc1 [p,p'-DDD]
LOAEL (Mus musculus; developmental, duration: 14 days, gavage, M, NMRI, developmental): 0.5 mg/kg-day
LOEL (Rattus norvegicus [4]): 200 mg/kg-day
NOEL (Rattus norvegicus [4]): 40 mg/kg-day

CC(C)Oc1cc(-n2nc(C(C)(C)C)oc2=O)c(Cl)cc1Cl [Oxadiazon]
LEL (Rattus norvegicus [2]; [7]): 5 mg/kg-day
NOEL (Rattus norvegicus [2]; [7]): 0.5 mg/kg-day

O=c1nc([O-])n(Cl)c(=O)n1Cl.[Na+] [Sodium dichloroisocyanurate]
LD50 (Oryctolagus sp.): > 2000 mg/kg

Clc1cc(Cl)cc(C2(CC(Cl)(Cl)Cl)CO2)c1 (configuration not stated) [Tridiphane]
LEL (Rattus norvegicus [2]; [8]): 1.67 mg/kg-day
NOEL (Rattus norvegicus [2]; [8]): 0.33 mg/kg-day

CCCCOC(=O)CC [Butyl propionate]
LD50 (Oryctolagus sp.; occlusive, New Zealand): > 14000 mg/kg
LD50 (Oryctolagus sp.; occlusive, albino): > 14000 mg/kg
LD50 (Rattus norvegicus [3]; dermal, occlusive, Fischer 344): > 2000 mg/kg
LD50 (Rattus norvegicus [3]; oral, gavage, Fischer 344): > 5000 mg/kg
LC50 (Rattus norvegicus [3]; oral, gavage, Sprague-Dawley): 12300 mg/kg
LD50 (Rattus norvegicus [3]; oral, gavage, Sprague-Dawley): 11000 mg/kg
LD50 (Rattus norvegicus [3]; oral, gavage, Wistar): > 14000 mg/kg
NOAEL (Rattus norvegicus [3]; developmental, duration: 10 days, inhalation, Sprague-Dawley): ≥ 10600 mg/m3
LOAEL (Rattus norvegicus [3]; [9]): 13300 mg/m3
NOAEL (Rattus norvegicus [3]; [9]): 2660 mg/m3
LOAEL (Rattus norvegicus [3]; reproduction developmental, duration: 13 weeks, inhalation, Sprague-Dawley): 3990 mg/m3
LOAEL (Rattus norvegicus [3]; short-term, duration: 11 days, inhalation, Fischer 344): 4260 mg/m3

CC(C)C(C(=O)OC(C#N)c1cccc(Oc2ccccc2)c1)c1ccc(Cl)cc1 (configuration not stated) [Fenvalerate]
LEL (Rattus norvegicus [2]; [10]): 7.5 mg/kg-day
NOEL (Rattus norvegicus [2]; [10]): 2.5 mg/kg-day

c1cc[n+]2c(c1)-c1cccc[n+]1CC2 [Diquat]
LEL (Rattus norvegicus [2]; chronic, oral, diet, F, lens opacity and cataracts): 0.72 mg/kg-day
NOEL (Rattus norvegicus [2]; chronic, oral, diet, M/F, lens opacity and cataracts): 0.22 mg/kg-day
LEL (Rattus norvegicus [2]; chronic, oral, diet, M, lens opacity and cataracts): 0.58 mg/kg-day

CN(C)c1nc(=O)n(C2CCCCC2)c(=O)n1C [Hexazinone]
LEL (Rattus norvegicus [2]; [11]): 50 mg/kg-day
NOEL (Rattus norvegicus [2]; [11]): 10 mg/kg-day

Cl [Hydrochloric acid]
LOAEL (Rattus norvegicus [2]; chronic, inhalation, M, hyperplasia of nasal mucosa larynx and trachea): 15 mg/m3

CCOP(=S)(S)OCC [Diethyl dithiophosphoric acid]
LD50 (Oryctolagus sp.; New Zealand): > 2000 mg/kg
LC50 (Rattus norvegicus [3]; inhalation): 1640 mg/m3
LD50 (Rattus norvegicus [3]; oral): 4510 mg/kg

O=S(=O)(O)C(F)(F)C(F)(F)C(F)(F)C(F)(F)C(F)(F)C(F)(F)F [Perfluorohexanesulfonic acid]
LOAEL (Rattus norvegicus [1]; [12]): 5 mg/kg-day
NOAEL (Rattus norvegicus [1]; [12]): 0.05 mg/kg-day
LOAEL (Rattus norvegicus [1]; developmental, duration: 16 days, gavage, F, Wistar, Developmental: 40% decrease in serum T4 levels in pups on PND 16 + Endocrine: 60% decreases in serum T4 levels in dams): 25 mg/kg-day
NOAEL (Rattus norvegicus [1]; reproduction developmental, duration: 56 days, gavage, F, Sprague-Dawley, Hematological: 6% increase in prothrombin time in males at ?0.3 mg/kg/day / decreases in hemoglobin (4%), hematocrit (3%), and RBC levels (…): 10 mg/kg-day
NOAEL (Rattus norvegicus [1]; reproduction developmental, duration: 56 days, gavage, M/F, Sprague-Dawley, Hepatic: Increased liver weight / centrilobular hepatocellular hypertrophy in males at ?3 mg/kg/day + Immunotoxicological: No histological …): 10 mg/kg-day
LOAEL (Rattus norvegicus [1]; [13]): 3 mg/kg-day
NOAEL (Rattus norvegicus [1]; [13]): 1 mg/kg-day
LOAEL (Rattus norvegicus [1]; reproduction developmental, duration: 56 days, gavage, M, Sprague-Dawley, Hematological: 6% increase in prothrombin time in males at ?0.3 mg/kg/day / decreases in hemoglobin (4%), hematocrit (3%), and RBC levels (…): 0.3 mg/kg-day
LOAEL (Rattus norvegicus [1]; [14]): 10 mg/kg-day
NOAEL (Rattus norvegicus [1]; [14]): 3 mg/kg-day
NOAEL (Rattus norvegicus [1]; short-term, duration: 16 days, gavage, F, Wistar): 45 mg/kg-day and 25 mg/kg-day
LOAEL (Mus musculus; [15]): 9.2 mg/kg-day
NOAEL (Mus musculus; [15]): 6.1 mg/kg-day
NOAEL (Mus musculus; developmental, duration: 42 days, gavage, M/F, CD1): 3 mg/kg-day
LOAEL (Mus musculus; [16]): 1 mg/kg-day
NOAEL (Mus musculus; [16]): 0.3 mg/kg-day
NOAEL (Mus musculus; developmental, duration: 42 days, gavage, M/F, CD1, Hepatic: Single cell necrosis and microvascular fatty changes at 3 mg/kg/day / centrilobular hepatocellular hypertrophy at ?0.3 mg/kg/day …): 1 mg/kg-day
LOAEL (Mus musculus; reproduction developmental, duration: 42 days, gavage, M/F, CD1, Hepatic: Single cell necrosis and microvascular fatty changes at 3 mg/kg/day / centrilobular hepatocellular hypertrophy at ?0.3 mg/kg/day …): 3 mg/kg-day
NOAEL (Mus musculus; short-term, duration: 7 days, gavage, M, Hepatic: Hepatocellular hypertrophy, steatosis, and increased hepatic triglyceride levels): 10 mg/kg-day
NOAEL (Mus musculus; subchronic, duration: 6 weeks, diet, M, Hepatic: Decreased plasma triglyceride, cholesterol, non-HDL cholesterol, and HDL cholesterol levels / increased hepatic triglyceride …): 6 mg/kg-day
